The text below walks through data of US20250145600A1, “2-((4-((S)-2-(4-CHLORO-2-FLUOROPHENYL)-2-METHYLBENZO[D][1,3]DIOXOL-4-YL)PIPERIDIN-1-YL)METHYL)-1-(((S)-OXETAN-2-YL)METHYL)-1H-IMIDAZOLE DERIVATIVES AS ACTIVATORS OF THE GLP1 RECEPTOR FOR THE TREATMENT OF OBESITY” (Novartis AG, priority 2022, published 2025).

Each structure is given as a SMILES string.

The test deals with human GLP1R (hGLP1R) (Homo sapiens, UniProt P43220). In words: Human GLP1R cAMP agonist assay (GloSensor cAMP Assay). The class given is cell-based. The following applies: HEK293-SNAP-hGLP1R-GloSensor cells; for Emax: cAMP activity as percent of GLP1 (7-36) EC100 control; for EC50: intracellular cAMP, 12 min at rt. The procedure: Compounds of formula (I) according to the invention were tested in the following cellular assays that measure the intracellular cAMP concentration, beta-arrestin recruitment and receptor internalization. The cAMP is generated by the activation of GLP1R. The extent to which the GLP1R is internalized into the cell and away from the plasma membrane following activation is also shown in Table 2. EC50 for each assay is defined as the concentration of the compound that leads to half of the maximum response (after baseline correction). Emax is defined as the maximum response observed for the test compound, normalized to the maximum response observed for the endogenous ligand (GLP1(7-36)) to GLP1R.
Human GLP1R cAMP Agonist Assay
The agonist activity of compounds was determined using the GloSensor™ cAMP Assay (Promega Corp.), which measures changes in the intracellular concentration of cAMP after ligand activation of GPCRs. The assay uses a biosensor encoded by pGloSensor™-22F cAMP plasmid (Promega, cat #E2301) with cAMP binding domains fused to a mutant form of Photinus pyralis luciferase. Binding to cAMP causes conformational changes that promote large increases in light output, which can be measured by a luminescence detector. HEK293-SNAP-hGLP1R-GloSensor cells stably overexpressing the human GLP1 receptor (hGLP1R) and pGloSensor™-22F were seeded in white 384-well poly-D-Lysine coated plates (Greiner Bio One, cat #781945) in CO2-independent media (Gibco cat #18045-088 with 1.0% FBS, 2 mM L-glutamine, penicillin and streptomycin) and incubated overnight at 37° C., 5% CO2 with humidity. The assay was started the following morning by adding an equal volume of CO2-independent media containing 4% v/v dilution of the GloSensor substrate (Promega, cat #E1291) to all wells. The cell plate was incubated at rt for 2 h in the dark. The Biomek 7 (Beckman Coulter) instrument was used for the liquid handling steps. To generate duplicate dose response curves, 3-fold serially diluted compounds were added in to the cell assay plate to a final volume of 60 μL with final concentrations ranging from 30 μM through 0.06 μM in CO2-independent media containing 0.1% BSA, 0.5 mM IBMX and 0.4% DMSO. In the same plate and assay buffer as the tested compounds, were EC100 control wells containing GLP1 (7-36) peptide (Bachem, cat #H-6795) at a final concentration of 2 nM and also EC0 control wells containing no peptide. This plate was incubated at rt in the dark for 12 min after adding the compounds to the cells. Luminescence was then measured with an Envision 2104 Multilabel reader with “TRF Light Unit, 337 nm” (PerkinElmer) using the Ultra-Sensitive protocol setting “384-well US luminescence detector” with the 384-well luminescence aperture, 0.1 seconds per well. cAMP activity was calculated as percent of the GLP1 (7-36) EC100 control wells: [(sample signal−mean EC0 signal)/(mean EC100 of GLP1 (7-36) signal−mean EC0 signal)}*100. Curve fitting for EC50 determinations was performed in the Helios module of the software package DAVID. The 4-parameter logistic model, Hill slope was used: y=Ainf+(A0−Ainf)/(1+(x/AC50)^Hill Slope) where y is the functional response; x is the compound concentration; A0 is the minimum value (at 0 dose); Ainf is the maximum value (at infinite dose); AC50 corresponds to the point of inflection (i.e. the point on the sigmoid shaped curve halfway between A0 and Ainf). The EC50 value was represented by the AC50 value calculated from Helios in μM. Emax is the maximal activity detected within the concentration range, derived from the fitted curve.
327 μL of Opti-MEM medium (Gibco, cat #31985-062) were mixed with 12 μL of FuGENE® HD (Promega, cat #E2311) and incubated at rt for 5 min. Then 8.2 μL (4 μg, 0.485 μg/μL solution) of pSNAP-hGLP1R plasmid (Cisbio, cat #PSNAP-GLP1) encoding human GLP1R (NCBI Reference Sequence: NM_002062.3) fused with Cisbio's SNAP tag was added in to the Fugene HD/Opti-MEM mix, and incubated at rt for 20 min. […]

Sequence of human GLP1R (hGLP1R) (P43220 24-463): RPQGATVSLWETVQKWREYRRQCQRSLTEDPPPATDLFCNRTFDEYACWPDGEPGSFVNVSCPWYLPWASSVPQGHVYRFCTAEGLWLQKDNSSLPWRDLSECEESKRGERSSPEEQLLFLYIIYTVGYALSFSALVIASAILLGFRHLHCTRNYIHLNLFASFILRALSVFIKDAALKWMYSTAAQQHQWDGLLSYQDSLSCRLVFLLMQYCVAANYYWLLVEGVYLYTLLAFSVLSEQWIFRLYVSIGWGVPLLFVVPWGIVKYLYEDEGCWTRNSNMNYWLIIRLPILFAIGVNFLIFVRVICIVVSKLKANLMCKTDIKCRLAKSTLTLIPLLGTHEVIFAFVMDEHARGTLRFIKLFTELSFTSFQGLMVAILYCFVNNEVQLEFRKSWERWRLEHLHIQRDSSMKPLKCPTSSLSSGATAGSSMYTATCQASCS

What is called Emax is the greatest response seen or fitted, relative to the assay's reference. The EC50 is the midpoint of the concentration-response curve. A low value points to greater potency. Regarding `Cc1nc(CN2CCC(c3cccc4c3O[C@@](C)(c3ccc(Cl)cc3F)O4)CC2)n(C[C@H]2CCO2)c1-c1ncc(C(=O)O)o1` [Compound C-2, 2-(2-((4-((S)-2-(4-chloro-2-fluorophenyl)-2-methylbenzo[d][1,3]dioxol-4-yl)piperidin-1-yl)methyl)-4-methyl-1-(((R)-oxetan-2-yl)methyl)-1H-imidazol-5-yl)oxazole-5-carboxylic acid], the Emax came to 108% and the EC50 is 0.149 nM.
In the case of `CCc1nc(CN2CCC(c3cccc4c3O[C@@](C)(c3ccc(Cl)cc3F)O4)CC2)n(C[C@H]2CCO2)c1-c1ncc(C(=O)O)o1` [Compound C-8, 2-(2-((4-((S)-2-(4-chloro-2-fluorophenyl)-2-methylbenzo[d][1,3]dioxol-4-yl)piperidin-1-yl)methyl)-4-ethyl-1-(((R)-oxetan-2-yl)methyl)-1H-imidazol-5-yl)oxazole-5-carboxylic acid], the maximal response (Emax) came out at 101% and the response was half-maximal at 0.353 nM (EC50).
The corresponding values for `Cc1nc(-c2nc(CN3CCC(c4cccc5c4O[C@@](C)(c4ccc(Cl)cc4F)O5)CC3)n(C[C@@H]3CCO3)c2C)oc1C(=O)O` [Compound C-15, 2-(2-((4-((S)-2-(4-chloro-2-fluorophenyl)-2-methylbenzo[d][1,3]dioxol-4-yl)piperidin-1-yl)methyl)-5-methyl-1-(((S)-oxetan-2-yl)methyl)-1H-imidazol-4-yl)-4-methyloxazole-5-carboxylic acid] are 103% and 0.112 nM.
`Cc1c(-c2cncc(C(=O)O)c2)nc(CN2CCC(c3cccc4c3O[C@@](C)(c3ccc(Cl)cc3F)O4)CC2)n1C[C@@H]1CCO1` [Compound C-23, 5-(2-((4-((S)-2-(4-chloro-2-fluorophenyl)-2-methylbenzo[d][1,3]dioxol-4-yl)piperidin-1-yl)methyl)-5-methyl-1-(((S)-oxetan-2-yl)methyl)-1H-imidazol-4-yl)nicotinic acid] displayed an Emax of 106%.
The compound `Cc1nc(CN2CCC(c3cccc4c3O[C@@](C)(c3ccc(Cl)cc3F)O4)CC2)n(C[C@H]2CCO2)c1-c1nc(C(=O)O)co1` [Compound C-3, 2-(2-((4-((S)-2-(4-chloro-2-fluorophenyl)-2-methylbenzo[d][1,3]dioxol-4-yl)piperidin-1-yl)methyl)-4-methyl-1-(((R)-oxetan-2-yl)methyl)-1H-imidazol-5-yl)oxazole-4-carboxylic acid] registered an Emax of 105% and a concentration for a half-maximal effect (EC50) of 0.0484 nM.
The compound `Cc1nc(CN2CCC(c3cccc4c3O[C@@](C)(c3ccc(Cl)cc3F)O4)CC2)n(C[C@@H]2CCO2)c1-c1ccc(C(=O)O)o1` [Compound C-22, 5-(2-((4-((S)-2-(4-chloro-2-fluorophenyl)-2-methylbenzo[d][1,3]dioxol-4-yl)piperidin-1-yl)methyl)-4-methyl-1-(((S)-oxetan-2-yl)methyl)-1H-imidazol-5-yl)furan-2-carboxylic acid] registered a maximal response (Emax) of 119% and an EC50 of 0.35 nM.
Consider `CCc1nc(CN2CCC(c3cccc4c3O[C@@](C)(c3ccc(Cl)cc3F)O4)CC2)n(C[C@@H]2CCO2)c1-c1ncc(C(=O)O)o1` [Compound C-6, 2-(2-((4-((S)-2-(4-chloro-2-fluorophenyl)-2-methylbenzo[d][1,3]dioxol-4-yl)piperidin-1-yl)methyl)-4-ethyl-1-(((S)-oxetan-2-yl)methyl)-1H-imidazol-5-yl)oxazole-5-carboxylic acid], for which the maximum response (Emax) amounted to 123% and the midpoint of the response, the EC50, lay at 0.464 nM.
The compound `Cc1nc(CN2CCC(c3cccc4c3O[C@@](C)(c3ccc(C#N)cc3F)O4)CC2)n(C[C@@H]2CCO2)c1-c1nc(C(=O)O)c(C)o1` [Compound C-11, 2-(2-((4-((S)-2-(4-cyano-2-fluorophenyl)-2-methylbenzo[d][1,3]dioxol-4-yl)piperidin-1-yl)methyl)-4-methyl-1-(((S)-oxetan-2-yl)methyl)-1H-imidazol-5-yl)-5-methyloxazole-4-carboxylic acid] came in with a maximum response (Emax) of 105% and an EC50 of 0.0428 nM.
